# From patent publication US7635706B2, “5HT4-antagonistic 4-(aminomethyl)-piperidine benzamides” (Janssen Pharmaceutica NV, priority 2003, dated 2009)
# Biological target: T1, h5-HT4b (Homo sapiens, UniProt Q13639)
# T1 construct: expressed in transfected cells; host or cells: HEK 293 (clone 9), membrane preparation
# Experiment: 5HT4 antagonism: [3H]GR113808 binding to membranes of h5-HT4b-HEK 293 clone 9 cells
# Details: [3H]GR113808 0.1 nM, h5-HT4b-HEK 293 membranes, 30 min at 25° C.
# Description: h5-HT4b-HEK 293 clone 9 cells were cultured in 150 mm Petri dishes and washed twice with cold PBS. The cells were then scraped from the plates and suspended in 50 mM Tris-HCl buffer, pH 7.4 and harvested by centrifugation at 23,500 rpm for 10 minutes. The pellet was resuspended in 5 mM Tris-HCl, pH 7.4 and homogenized with an Ultra Turrax homogenizer. The membranes were collected by centrifugation at 30,000 rpm for 20 min, resuspended in 50 mM Tris-HCl pH 7.4 and stored at −80° C. For the experiment, assay mixtures (0.5 ml) contained 50 μl of the tritiated ligand (5-HT4 antagonist [^3H]GR113808 0.1 nM) and 0.4 ml membrane preparation (15 μg protein/ml). 50 μl of 10% DMSO was added for total binding. 50 μl of 1 μM of (+)-trans-(1-butyl-3-hydroxy4-piperidinyl)methyl 8-amino-7-chloro-2,3-dihydro-1,4-benzodioxin-5-carboxylate (a proprietary 5HT4 agonist of Janssen Pharmaceutica) was added for determination of non-specific binding.
# The [^3H]GR113808 assay buffer was 50 mM HEPES-NaOH, pH 7.4. The mixtures were incubated for 30 min at 25° C. The incubation was terminated by filtration over a Unifilter 96 GF/B presoaked in 0.1% polyethylenimine, followed by six washing steps with 50 mM HEPES-NaOH, pH 7.4.
# T1 sequence (Q13639 whole entry): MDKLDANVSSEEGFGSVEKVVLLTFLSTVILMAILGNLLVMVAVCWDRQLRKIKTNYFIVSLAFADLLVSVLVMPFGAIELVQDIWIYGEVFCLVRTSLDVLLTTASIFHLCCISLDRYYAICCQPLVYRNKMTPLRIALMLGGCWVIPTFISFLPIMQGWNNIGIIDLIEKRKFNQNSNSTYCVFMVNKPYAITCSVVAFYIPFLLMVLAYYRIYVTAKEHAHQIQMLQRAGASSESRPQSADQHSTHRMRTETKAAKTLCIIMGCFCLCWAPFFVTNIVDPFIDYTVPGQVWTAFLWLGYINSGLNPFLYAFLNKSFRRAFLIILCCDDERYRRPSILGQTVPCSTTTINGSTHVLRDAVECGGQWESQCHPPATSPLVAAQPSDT
row,IC50 [nM],SMILES
1,7.24,COc1ccc(C(=O)NC[C@@H]2CCN(CCCC(N)=O)C[C@H]2O)c2c1OCCCO2 [compound 128]
2,5.25,CNCCN1CC[C@@H](CNC(=O)c2cc(Cl)c(Cl)c3c2OCCCO3)[C@H](OC)C1 [compound 84]
3,3.89,COCCCN1CC[C@@H](CNC(=O)c2cc(Cl)c(Cl)c3c2OCCCO3)[C@H](O)C1 [compound 37]
4,2.24,COCCCN1CC[C@@H](CNC(=O)c2ccc(F)c3c2OCCCO3)[C@H](O)C1 [compound 132]
5,5.37,COc1c(Cl)cc(C(=O)NC[C@@H]2CCN(CCCO)C[C@H]2O)c2c1OCCCO2 [compound 13]
6,23.4,CO[C@@H]1CNCC[C@H]1CNC(=O)c1cc(Cl)c(Br)c2c1OCCCO2 [compound 35]
7,5.89,COc1ccc(C(=O)NC[C@@H]2CCN(CCCC(N)=O)C[C@H]2O)c2c1OCCO2 [compound 139]
8,0.912,COc1ccc(C(=O)NC[C@@H]2CCN(CCCNS(C)(=O)=O)C[C@H]2OC)c2c1OCCCO2 [compound 134]
9,3.39,COCCCCN1CC[C@@H](CNC(=O)c2ccc(OC)c3c2OCCCO3)[C@H](O)C1 [compound 129]
10,490,CNCCN1CC[C@@H](CNC(=O)c2cc(Cl)c(OC)c3c2OCCO3)[C@H](OC)C1 [compound 92]
11,2.69,CNCCCN1CC[C@@H](CNC(=O)c2cc(Cl)c(Cl)c3c2OCCCO3)[C@H](O)C1 [compound 85]
12,3.09,COCCCN1CC[C@@H](CNC(=O)c2ccc(OC)c3c2OCCCO3)[C@H](O)C1 [compound 110]
13,6.92,CNCCCCN1CC[C@@H](CNC(=O)c2ccc(C)c3c2OCCCO3)[C@H](O)C1 [compound 4]
14,36.3,COc1c(Cl)cc(C(=O)NC[C@@H]2CCN(CCCO)C[C@H]2OC)c2c1OCCCO2 [compound 57]
15,4.07,COc1ccc(C(=O)NC[C@@H]2CCN(CCCCC(N)=O)C[C@H]2O)c2c1OCCCO2 [compound 122]
16,6.46,CNCCCCN1CC[C@@H](CNC(=O)c2ccc(OC)c3c2OCCCO3)[C@H](O)C1 [compound 102]
17,35.5,COc1c(Cl)cc(C(=O)NC[C@@H]2CCN(CCn3ccn(C(C)C)c3=O)C[C@H]2O)c2c1OCCO2 [compound 60]
18,91.2,CCCCN1CCC(O)(CNC(=O)c2ccc(OC)c3c2OCCCO3)CC1 [compound 136]
19,64.6,CNCCN1CC[C@@H](CNC(=O)c2cc(Cl)c(OC)c3c2OCCO3)[C@H](O)C1 [compound 83]

row,IC50 [nM],SMILES
1,3.09,O=C(NC[C@@H]1CCN(CCOCCO)C[C@H]1O)c1cc(Cl)c(Br)c2c1OCCCO2 [compound 25]
2,1,CCCCN1CC[C@@H](CNC(=O)c2ccc(F)c3c2OCCCO3)[C@H](O)C1 [compound 131]
3,4.57,COc1ccc(C(=O)NC[C@@H]2CCN(CCCCO)C[C@H]2O)c2c1OCCCO2 [compound 121]
4,6.31,CNCCCN1CC[C@@H](CNC(=O)c2cc(Cl)c(Br)c3c2OCCCO3)[C@H](O)C1 [compound 80]
5,17.4,COc1c(Cl)cc(C(=O)NC[C@@H]2CCN(CCOCCO)C[C@H]2O)c2c1OCCCO2 [compound 23]
6,20.4,COc1ccc(C(=O)NC[C@@H]2CCN(CCCO)C[C@H]2OC)c2c1OCCO2 [compound 119]
7,2.69,O=C(NC[C@@H]1CCN(CCCO)C[C@H]1O)c1cc(Cl)c(Cl)c2c1OCCCO2 [compound 19]
8,3.89,COc1ccc(C(=O)NC[C@@H]2CCN(CCCCNc3nccnc3C)C[C@H]2O)c2c1OCCCO2 [compound 130]
9,6.31,CO[C@@H]1CN(CCCC#N)CC[C@H]1CNC(=O)c1cc(Cl)c(Br)c2c1OCCCO2 [compound 28]
10,7.24,COc1ccc(C(=O)NC[C@@H]2CCN(CCCO)C[C@H]2O)c2c1OCCCO2 [compound 99]
11,2.63,CCCCN1CC[C@@H](CNC(=O)c2ccc(OC)c3c2OCCO3)[C@H](O)C1 [compound 114]
12,2.34,CCCCN1CC[C@@H](CNC(=O)c2cc(Cl)c(Br)c3c2OCCCO3)[C@H](OC)C1 [compound 58]
13,282,COc1ccc(C(=O)NC[C@H]2CCN(CCCC(N)=O)C[C@H]2O)c2c1OCCCO2 [compound 144]
14,5.25,COc1ccc(C(=O)NC[C@@H]2CCN(CCCO)C[C@H]2O)c2c1OCCO2 [compound 116]
15,1.7,Cc1ccc(C(=O)NC[C@@H]2CCN(CCCO)C[C@H]2O)c2c1OCCCO2 [compound 3]
16,7.94,COc1c(Cl)cc(C(=O)NC[C@@H]2CCN(CC3OCCO3)C[C@H]2O)c2c1OCCO2 [compound 9]
17,3.8,CCCCN1CC[C@@H](CNC(=O)c2cc(Cl)c(OC)c3c2OCCCO3)[C@H](O)C1 [compound 17]
18,214,CCCCN1CC[C@H](CNC(=O)c2ccc(OC)c3c2OCCCO3)[C@H](O)C1 [compound 141]
19,21.9,COCCCN1CC[C@@H](CNC(=O)c2cc(Cl)c(OC)c3c2OCCO3)[C@H](OC)C1 [compound 76]

row,IC50 [nM],SMILES
1,1.55,CNCCCCN1CC[C@@H](CNC(=O)c2cc(Cl)c(Br)c3c2OCCCO3)[C@H](O)C1 [compound 64]
2,57.5,CNCCN1CC[C@@H](CNC(=O)c2cc(Cl)c(Br)c3c2OCCCO3)[C@H](OC)C1 [compound 48]
3,2.09,CCCCN1CC[C@@H](CNC(=O)c2cc(Cl)c(Cl)c3c2OCCCO3)[C@H](OC)C1 [compound 81]
4,8.32,CO[C@@H]1CN(CCn2ccn(C(C)C)c2=O)CC[C@H]1CNC(=O)c1cc(Cl)c(Cl)c2c1OCCCO2 [compound 82]
5,10.7,CCCCN1CC[C@@H](CNC(=O)c2cc(Cl)c(OC)c3c2OCCCO3)[C@H](OC)C1 [compound 71]
6,0.603,Cc1ccc(C(=O)NC[C@@H]2CCN(CCCOc3ccc(S(N)(=O)=O)cc3)C[C@H]2O)c2c1OCCCO2 [compound 105]
7,23.4,CNCCCCN1CC[C@@H](CNC(=O)c2cc(Cl)c(OC)c3c2OCCO3)[C@H](O)C1 [compound 43]
8,13.5,CC(C)n1ccn(CCN2CC[C@@H](CNC(=O)c3cc(Cl)c(Br)c4c3OCCCO4)[C@H](O)C2)c1=O [compound 91]
9,2.45,COc1ccc(C(=O)NC[C@@H]2CCN(CCC3OCCO3)C[C@H]2O)c2c1OCCCO2 [compound 101]
10,7.08,COc1c(Cl)cc(C(=O)NC[C@@H]2CCN(CCC3OCCO3)C[C@H]2O)c2c1OCCO2 [compound 31]
11,3.24,COc1ccc(C(=O)NC[C@@H]2CCN(CCCO)C[C@H]2O)c2c1OCCCO2 [compound 113]
12,18.2,COc1c(Cl)cc(C(=O)NC[C@@H]2CCN(CC3CCCO3)C[C@H]2OC)c2c1OCCCO2 (stereo partly drawn) [compound 73]
13,28.8,CNCCCN1CC[C@@H](CNC(=O)c2cc(Cl)c(OC)c3c2OCCO3)[C@H](O)C1 [compound 44]
14,8.71,COc1ccc(C(=O)NC[C@@H]2CCN(CC3CCCO3)C[C@H]2O)c2c1OCCCO2 (stereo partly drawn) [compound 103]
15,6.31,O=C(NC[C@@H]1CCN(CC2OCCO2)C[C@H]1O)c1cc(Cl)c(Br)c2c1OCCCO2 [compound 26]
16,0.912,CNCCCCN1CC[C@@H](CNC(=O)c2cc(Cl)c(Cl)c3c2OCCCO3)[C@H](OC)C1 [compound 86]
17,132,COc1c(Cl)cc(C(=O)NC[C@@H]2CCN(CC3OCCO3)C[C@H]2OC)c2c1OCCCO2 [compound 66]
18,5.37,CNCCCN1CC[C@@H](CNC(=O)c2cc(Cl)c(Cl)c3c2OCCCO3)[C@H](OC)C1 [compound 74]
19,3.89,O=C(NC[C@@H]1CCN(CC2CCCO2)C[C@H]1O)c1cc(Cl)c(Br)c2c1OCCCO2 (stereo partly drawn) [compound 39]
